Measurements reported in ChEMBL document CHEMBL4373726, “Novel amides modified rupestonic acid derivatives as anti-influenza virus reagents” (Bioorg Med Chem Lett, 2019).

Columns and labels:
Influenza A virus = experiment: Antiviral activity against Influenza A virus H1N1 infected in dog MDCK cells assessed as inhibition in virus-induced cytopathic effect incubated for 40 hrs; type: functional, organism-based
[1] = Selectivity index, ratio of TC50 for cytotoxicity against dog MDCK cells to IC50 for antiviral activity against Influenza A virus H1N1 infected in dog MDCK cells; type: toxicity, cell-based; settings: read-out: Selectivity Index
Influenza A virus H3N2 = experiment: Antiviral activity against Influenza A virus H3N2 infected in dog MDCK cells assessed as inhibition in virus-induced cytopathic effect incubated for 40 hrs; type: functional, organism-based
Influenza B virus = experiment: Antiviral activity against Influenza B virus infected in MDCK cells assessed as inhibition in virus-induced cytopathic effect incubated for 40 hrs; type: functional, organism-based
[2] = Cytotoxicity against MDCK cells assessed as reduction in cell viability incubated for 48 hrs; type: cell-based, Canis lupus familiaris; settings: dog, read-out: TC50
[3] = Selectivity index, ratio of TC50 for cytotoxicity against dog MDCK cells to IC50 for antiviral activity against Influenza A virus H3N2 infected in dog MDCK cells; type: toxicity, cell-based; settings: read-out: Selectivity Index
[4] = Selectivity index, ratio of TC50 for cytotoxicity against dog MDCK cells to IC50 for antiviral activity against Influenza B virus infected in dog MDCK cells; type: toxicity, cell-based; settings: read-out: Selectivity Index

SMILES	IC50 (Influenza A virus) [µM]	selectivity ratio [1]	IC50 (Influenza A virus H3N2) [µM]	IC50 (Influenza B virus) [µM]	CC50 at 48 h [2] [µM]	selectivity ratio [3]	selectivity ratio [4]
C=C(C(=O)OC)[C@@H]1CC[C@H](C)[C@@H]2CC(=O)C(C)=C2C1	72.7	3	> 71.8	> 71.1			
C=C(C(=O)NCc1ccc(B(O)O)cc1)[C@@H]1CC[C@H](C)[C@@H]2CC(=O)C(C)=C2C1	85.4	3.3	65.9	80	262	4	3.3
C=C(C(=O)Nc1ncc(B(O)O)cn1)[C@@H]1CC[C@H](C)[C@@H]2CC(=O)C(C)=C2C1	96	3.3	87.4	135	315	3.6	2.4
C=C(C(=O)Nc1ccc2c(c1)COB2O)[C@@H]1CC[C@H](C)[C@@H]2CC(=O)C(C)=C2C1	> 49.1		> 49.1	> 49.1	254		
C=C(C(=O)NCc1cccc(B(O)O)c1)[C@@H]1CC[C@H](C)[C@@H]2CC(=O)C(C)=C2C1	43.3	6	63.5	90.3	252	4	2.8
C=C(C(=O)OC)[C@@H]1CC[C@H](C)[C@H]2C(=C(C)C(=O)[C@H]2NC(=O)C(C)CCl)C1 (some centres not stated)	> 422		422	> 422	735	1.7	
C=C(C(=O)OC)[C@@H]1CC[C@H](C)[C@H]2C(=C(C)C(=O)[C@H]2NS(=O)(=O)c2ccc(F)cc2)C1	8.1	3	10.2	14.7	25.1	2.5	1.7
C=C(C(=O)OC)[C@@H]1CC[C@H](C)[C@H]2C(=C(C)C(=O)[C@H]2NS(C)(=O)=O)C1	40.5	5.6	52.4	40.3	226	4.3	5.6
C=C(C(=O)Nc1ccc(B(O)O)cc1)[C@@H]1CC[C@H](C)[C@@H]2CC(=O)C(C)=C2C1	> 452		> 452	> 451	939		
C=C(C(=O)Nc1cccc(B(O)O)c1)[C@@H]1CC[C@H](C)[C@@H]2CC(=O)C(C)=C2C1	129	4.9	146	147	632	5.3	4.3
C=C(C(=O)OC)[C@@H]1CC[C@H](C)[C@H]2C(=C(C)C(=O)[C@H]2NC(=O)c2ccccc2)C1	38.4	2.2	> 16.5	43.8	84.3		1.9
C=C(C(=O)OC)[C@@H]1CC[C@H](C)[C@H]2C(=C(C)C(=O)[C@H]2NC(C)=O)C1	174	4.9	> 175	522	753		1.7
C=C(C(=O)OC)[C@@H]1CC[C@H](C)[C@H]2C(=C(C)C(=O)[C@H]2NC(=O)CNC(=O)c2ccccc2)C1	101	4.9	> 114	> 114	488		
C=C(C(=O)OC)[C@@H]1CC[C@H](C)[C@H]2C(=C(C)C(=O)[C@H]2NC(=O)c2ccc(B(O)O)cc2)C1	44.6	4.3	> 44.5	> 44.2	188		
C=C(C(=O)OC)[C@@H]1CC[C@H](C)[C@H]2C(=C(C)C(=O)[C@H]2NC(=O)CC#N)C1	485	3	> 485	484	1450		3
C=C(C(=O)OC)[C@@H]1CC[C@H](C)[C@H]2C(=C(C)C(=O)[C@H]2NS(=O)(=O)c2ccc(C)cc2)C1	14.5	4.3	> 14.9	14.1	61.1		4.3
CCOC(=O)C1=C[C@@H](OC(CC)CC)[C@H](NC(C)=O)[C@@H](N)C1 [OSELTAMIVIR]	15.6		11.3	> 488	1410	132	
C=C(C(=O)O)[C@@H]1CC[C@H](C)[C@@H]2CC(=O)C(C)=C2C1 [PECHUELOIC ACID]		4.3				4.3	10
NC(=O)c1ncn([C@@H]2O[C@H](CO)[C@@H](O)[C@H]2O)n1 [RIBAVIRIN]	8.5	363	10.6	8		476	714
